Test results published in patent US12097261B2, “CDK2 degraders and uses thereof” (Kymera Therapeutics, Inc., priority 2021, dated 2024).

Experiments:
CDK2 = biological target: T1, CDK2 (Homo sapiens, UniProt P24941); assay: CDK2 degradation by immunoblotting in OVCAR-8 cells; type: cell-based; conditions: for DC50: 24 h
T1 construct: endogenous in cells; host or cells: OVCAR-8
Procedure: (§1) CDK2 and CDK1 Degradation by Immunoblotting
(§2) Ovarian cancer cell line OVCAR-8 were cultured in 12-well plates in complete growth medium. A serial dilution of each compound was added to individual wells from a 2× stock solution, and cells were cultured for 24 hours. Cells were collected by centrifugation, and cell pellets lysed with addition of chilled RIPA buffer supplemented with protease/phosphatase inhibitors followed by incubation for 20 minutes on ice. Lysates were clarified by centrifugation and 5×SDS loading buffer was added to the supernatant followed by heating to 100° C. for 10 minutes. An aliquot of the samples were separated by SDS-PAGE and transferred to a nitrocellulose membrane. Immunoblotting was performed according to standard procedures using anti-CDK2 primary antibody (Abcam ab32147) at 1:1000 dilution and IRDye 800CW goat anti-Rabbit secondary antibody (LICOR) and imaged using a LICOR Odyssey instrument. Blots were stained with anti-beta-Actin primary antibody (Cell Signaling Technology mAb #4970) for normalization. The normalized CDK2/Actin values were calculated as a percent of DMSO treated cells and plotted to determine the concentration at which 50% of CDK2 signal is decreased (DC50). The determination of CDK1 degradation was determined similarly using anti-CDK1 primary antibody (Abcam ab131450).

CDK1 = biological target: T2, CDK1 (Homo sapiens, UniProt P06493); assay: CDK1 degradation by immunoblotting in OVCAR-8 cells; type: cell-based; conditions: 24 h
T2 construct: endogenous in cells; host or cells: OVCAR-8
T2 sequence (P06493 whole entry): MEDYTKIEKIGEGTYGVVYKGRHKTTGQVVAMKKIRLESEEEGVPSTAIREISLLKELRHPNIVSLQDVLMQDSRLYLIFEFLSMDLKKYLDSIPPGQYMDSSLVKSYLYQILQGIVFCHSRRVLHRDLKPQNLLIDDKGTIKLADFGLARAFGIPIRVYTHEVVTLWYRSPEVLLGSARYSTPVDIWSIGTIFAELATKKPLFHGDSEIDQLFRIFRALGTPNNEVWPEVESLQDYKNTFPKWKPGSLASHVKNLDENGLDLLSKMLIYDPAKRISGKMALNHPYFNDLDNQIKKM
Procedure: as §1, §2

Row | DC50 (CDK2) | DC50 (CDK1) | CDK2 DC50, (OVCAR-8, 24 h) (CDK2) | Structure (SMILES)
1 | < 10 nM | 1000 to 5000 nM |  | Cc1cc(S(=O)(=O)N[C@H]2CC[C@H](OCCOCCCc3ccc4c(c3)n(C)c(=O)n4C3CCC(=O)NC3=O)CC2)ccc1Nc1ncc2ccc(=O)n(C3CCCC3)c2n1 (some centres unmarked) [I-110]
2 | 1000 to 5000 nM | > 5000 nM |  | CC(C)NC(=O)O[C@H]1CC[C@@H](c2cc(NC(=O)c3ccnn3CCN3CCN(CCOCCCc4ccc5c(c4)n(C)c(=O)n5C4CCC(=O)NC4=O)CC3)[nH]n2)C1 (some centres unmarked) [I-151]
3 | 10 to 100 nM | > 5000 nM |  | CC(C)NC(=O)O[C@@H]1CC[C@H](c2cc(NC(=O)c3cnn(CCOCCOCCOCCCc4ccc5c(c4)n(C)c(=O)n5C4CCC(=O)NC4=O)c3)n[nH]2)C1 (some centres unmarked) [I-75]
4 | < 10 nM | > 5000 nM |  | CC(C)NC(=O)O[C@@H]1CC[C@H](c2cc(NC(=O)c3cc(COCCCCCCCCCc4ccc5c(c4)n(C)c(=O)n5[C@H]4CCC(=O)NC4=O)nn3C)n[nH]2)C1 [I-99]
5 | 10 to 100 nM | > 5000 nM |  | CC(C)NC(=O)O[C@H]1CC[C@@H](c2cc(NC(=O)c3ccnn3CCOCCOCCOCCOCCCc3ccc4c(c3)n(C)c(=O)n4C3CCC(=O)NC3=O)n[nH]2)C1 (some centres unmarked) [I-149]
6 | < 10 nM | 100 to 1000 nM |  | CC(C)NC(=O)O[C@@H]1CC[C@H](c2cc(NC(=O)c3cc(COCCCCCCCCCc4cccc5c4n(C)c(=O)n5[C@H]4CCC(=O)NC4=O)nn3C)n[nH]2)C1 [I-100]
7 | 1000 to 5000 nM |  |  | CC(C)NC(=O)O[C@@H]1CC[C@H](c2cc(NC(=O)c3cnn(C4CCC(CN(C)C5CCN(Cc6cccc7c6n(C)c(=O)n7C6CCC(=O)NC6=O)CC5)CC4)c3)n[nH]2)C1 (stereo partly drawn) [I-84, (1R,3S)-3-(5-(1-(4-(((1-((1-(2,6-dioxopiperidin-3-yl)-3-methyl-2-oxo-2,3-dihydro-1H-benzo[d]imidazol-4-yl)methyl)piperidin-4-yl)(methyl)amino)methyl)cyclohexyl)-1H-pyrazole-4-carboxamido)-1H-pyrazol-3-yl)cyclopentyl isopropylcarbamate]
8 |  |  | inactive | CC(C)NC(=O)O[C@@H]1CC[C@H](c2cc(NC(=O)c3ccnn3CCCCCCCCCCCCc3cccc4c3n(C)c(=O)n4C3CCC(=O)NC3=O)n[nH]2)C1 (some centres unmarked) [I-89]
9 | > 5000 nM | > 5000 nM |  | Cc1cc(S(=O)(=O)NCCOCCOCCOCCOCCCc2ccc3c(c2)n(C)c(=O)n3C2CCC(=O)NC2=O)ccc1Nc1ncc2c(C)cc(=O)n(C3CCCC3)c2n1 (centres unmarked) [I-138]
10 | 10 to 100 nM | > 5000 nM |  | CC(C)NC(=O)O[C@@H]1CC[C@H](c2cc(NC(=O)c3cnn(CCCCCCCCCCCc4ccn5c(N6CCC(=O)NC6=O)cnc5c4)c3)[nH]n2)C1 [I-142]
11 |  |  | inactive | CC(C)NC(=O)O[C@@H]1CC[C@H](c2cc(NC(=O)c3ccnn3CCCCCCCCCc3ccc4c(c3)n(C)c(=O)n4C3CCC(=O)NC3=O)n[nH]2)C1 (some centres unmarked) [I-87]
12 | 10 to 100 nM | > 5000 nM |  | CC(C)NC(=O)O[C@@H]1CC[C@H](c2cc(NC(=O)Cc3cnn(CCCCCCCc4ccc5c(c4)n(C)c(=O)n5C4CCC(=O)NC4=O)c3)n[nH]2)C1 (stereo partly drawn) [I-103, (1R,3S)-3-(3-(2-(1-(7-(1-(2,6-dioxopiperidin-3-yl)-3-methyl-2-oxo-2,3-dihydro-1H-benzo[d]imidazol-5-yl)heptyl)-1H-pyrazol-4-yl)acetamido)-1H-pyrazol-5-yl)cyclopentyl isopropylcarbamate]
13 | > 5000 nM | > 5000 nM |  | Cc1cc(S(=O)(=O)NCCOCCOCCCc2ccc3c(c2)n(C)c(=O)n3C2CCC(=O)NC2=O)ccc1Nc1ncc2c(n1)N(C1CCCC1)C(=O)C21CC1 (centres unmarked) [I-150]
14 | < 10 nM | 100 to 1000 nM |  | CC(C)NC(=O)O[C@@H]1CC[C@H](c2cc(CC(=O)c3cc(COCCCCCCCc4cccc5c4n(C)c(=O)n5C4CCC(=O)NC4=O)nn3C)[nH]n2)C1 (some centres unmarked) [I-101]
15 | < 10 nM | 1000 to 5000 nM |  | Cc1cc(S(=O)(=O)NCCOC2CC3(C2)CN(CC#Cc2ccc4c(c2)n(C)c(=O)n4C2CCC(=O)NC2=O)C3)ccc1Nc1ncc2ccc(=O)n(C3CCCC3)c2n1 (centres unmarked) [I-126]
16 |  |  | inactive | CC(C)NC(=O)O[C@@H]1CC[C@H](c2cc(NC(=O)Cc3cnn(C4CCC(CN(C)C5CCN(Cc6cccc7c6n(C)c(=O)n7C6CCC(=O)NC6=O)CC5)CC4)c3)n[nH]2)C1 (some centres unmarked) [I-93]
17 |  |  | inactive | CC(C)NC(=O)O[C@@H]1CC[C@H](c2cc(NC(=O)c3cnn(CCOCCOCCCc4ccc5c(c4)n(C)c(=O)n5C4CCC(=O)NC4=O)c3)[nH]n2)C1 (some centres unmarked) [I-85]

More lines, now with the values behind:

Row | Structure (SMILES) | DC50 (CDK2) | DC50 (CDK1) | CDK2 DC50, (OVCAR-8, 24 h) (CDK2)
18 | Cc1cc(S(=O)(=O)NCCOCCOCCCc2cccc3c2n(C)c(=O)n3C2CCC(=O)NC2=O)ccc1Nc1ncc2cc(C(F)F)c(=O)n([C@@H]3CCC[C@@]3(C)O)c2n1 (some centres unmarked) [I-8] | 10 to 100 nM | > 5000 nM | 
19 | Cn1c(=O)n(C2CCC(=O)NC2=O)c2ccc(CCCOCCOCCOCCOCC(=O)N3CCC(Nc4ncc5cc(C(F)F)c(=O)n([C@@H]6CCC[C@@]6(C)O)c5n4)CC3)cc21 (some centres unmarked) [I-20] |  |  | inactive
20 | CC(C)NC(=O)O[C@@H]1CC[C@H](c2cc(NC(=O)c3cnn(CCCCCCCCCC#Cc4cccn5c(N6CCC(=O)NC6=O)cnc45)c3)n[nH]2)C1 [I-68] | 10 to 100 nM | > 5000 nM | 
21 | Cc1cc(S(=O)(=O)NCCOCCOCCOCCOCCCc2cccc3c2n(C)c(=O)n3C2CCC(=O)NC2=O)ccc1Nc1ncc(Br)c(Nc2cccc(F)c2C(N)=O)n1 (centres unmarked) [I-37, 2-((5-Bromo-2-((4-(N-(15-(1-(2,6-dioxopiperidin-3-yl)-3-methyl-2-oxo-2,3-dihydro-1H-benzo[d]imidazol-4-yl)-3,6,9,12-tetraoxapentadecyl)sulfamoyl)-2-methylphenyl)amino)pyrimidin-4-yl)amino)-6-fluorobenzamide] | 10 to 100 nM | 1000 to 5000 nM | 
22 | Cc1cc(S(=O)(=O)NCCOCCOCCCc2ccc3c(c2)n(C)c(=O)n3C2CCC(=O)NC2=O)ccc1Nc1ncc2cc(C(F)F)c(=O)n([C@@H]3CCC[C@@]3(C)O)c2n1 (some centres unmarked) [I-5] | < 10 nM | > 5000 nM | 
23 | CC(C)NC(=O)O[C@@H]1CC[C@H](c2cc(NC(=O)c3cnn(CCOCCOCCOCCCc4ccn5c(N6CCC(=O)NC6=O)cnc5c4)c3)n[nH]2)C1 [I-74] | 100 to 1000 nM | > 5000 nM | 
24 | Cc1cc(S(=O)(=O)NCCOCCOCCOCCOCCNc2cccc3c2C(=O)N(C2CCC(=O)NC2=O)C3=O)ccc1Nc1ncc2cc(C(F)F)c(=O)n([C@@H]3CCC[C@@]3(C)O)c2n1 (some centres unmarked) [I-17] | 10 to 100 nM | > 5000 nM | 
25 | Cn1c(=O)n(C2CCC(=O)NC2=O)c2cccc(CCCCCCCCCCCC(=O)N3CCC(Nc4ncc5cc(C(F)F)c(=O)n([C@@H]6CCC[C@@]6(C)O)c5n4)CC3)c21 (some centres unmarked) [I-26] |  |  | inactive
26 | Cn1c(=O)n(C2CCC(=O)NC2=O)c2cccc(CCCCCCCCC(=O)N3CCC(Nc4ncc5cc(C(F)F)c(=O)n([C@@H]6CCC[C@@]6(C)O)c5n4)CC3)c21 (some centres unmarked) [I-23] |  |  | inactive
27 | CC(C)NC(=O)O[C@@H]1CC[C@H](c2cc(NC(=O)c3cnn(CCCCCCCCCCCc4cccn5c(N6CCC(=O)NC6=O)cnc45)c3)n[nH]2)C1 [I-64] | 10 to 100 nM | 1000 to 5000 nM | 
28 | CC(C)NC(=O)O[C@@H]1CC[C@H](c2cc(NC(=O)c3cnn(CCCCCCCCCC#Cc4cccc5c(N6CCC(=O)NC6=O)cncc45)c3)n[nH]2)C1 [I-67] | 100 to 1000 nM | 1000 to 5000 nM | 
29 | C[C@@]1(O)CCC[C@H]1n1c(=O)c(C(F)F)cc2cnc(NC3CCN(C(=O)COCCOCCNc4cccc5c4C(=O)N(C4CCC(=O)NC4=O)C5=O)CC3)nc21 (some centres unmarked) [I-27] |  |  | inactive
30 | CC(C)NC(=O)O[C@@H]1CC[C@H](c2cc(CC(=O)c3cnn(CCOCCOCCOCCCc4ccc5c(N6CCC(=O)NC6=O)cncc5c4)c3)[nH]n2)C1 [I-73] | 100 to 1000 nM | > 5000 nM | 
31 | C[C@@]1(O)CCC[C@H]1n1c(=O)c(C(F)F)cc2cnc(NC3CCN(S(=O)(=O)CCCCCCCCCCNc4cccc5c4C(=O)N(C4CCC(=O)NC4=O)C5=O)CC3)nc21 (some centres unmarked) [I-15] | 10 to 100 nM | 100 to 1000 nM | 
32 | Cn1c(=O)n(C2CCC(=O)NC2=O)c2cccc(CCCOCCOCCOCCOCC(=O)N3CCC(Nc4ncc5cc(C(F)F)c(=O)n([C@@H]6CCC[C@@]6(C)O)c5n4)CC3)c21 (stereo partly drawn) [I-21, 3-(4-(1-(4-((6-(Difluoromethyl)-8-((1R,2R)-2-hydroxy-2-methylcyclopentyl)-7-oxo-7,8-dihydropyrido[2,3-d]pyrimidin-2-yl)amino)piperidin-1-yl)-1-oxo-3,6,9,12-tetraoxapentadecan-15-yl)-3-methyl-2-oxo-2,3-dihydro-1H-benzo[d]imidazol-1-yl)piperidine-2,6-dione] |  |  | inactive
33 | Cn1c(=O)n(C2CCC(=O)NC2=O)c2ccc(CCCCCCCCCCCC(=O)N3CCC(Nc4ncc5cc(C(F)F)c(=O)n([C@@H]6CCC[C@@]6(C)O)c5n4)CC3)cc21 (some centres unmarked) [I-25] |  |  | inactive
34 | Cn1c(=O)n(C2CCC(=O)NC2=O)c2ccc(CCCCCCCCC(=O)N3CCC(Nc4ncc5cc(C(F)F)c(=O)n([C@@H]6CCC[C@@]6(C)O)c5n4)CC3)cc21 (some centres unmarked) [I-22] |  |  | inactive
35 | C[C@@]1(O)CCC[C@H]1n1c(=O)c(C(F)F)cc2cnc(NC3CCN(C(=O)CCCCCCCNc4cccc5c4C(=O)N(C4CCC(=O)NC4=O)C5=O)CC3)nc21 (some centres unmarked) [I-28] |  |  | inactive
36 | Cn1c(=O)n(C2CCC(=O)NC2=O)c2cccc(CCCOCCOCC(=O)N3CCC(Nc4ncc5cc(C(F)F)c(=O)n([C@@H]6CCC[C@@]6(C)O)c5n4)CC3)c21 (some centres unmarked) [I-29] |  |  | inactive
37 | C[C@@]1(O)CCC[C@H]1n1c(=O)c(C(F)F)cc2cnc(NC3CCN(C(=O)COCCOCCOCCOCCNc4cccc5c4C(=O)N(C4CCC(=O)NC4=O)C5=O)CC3)nc21 (some centres unmarked) [I-24] |  |  | inactive
